Where a name gives a salt, the structure may show the parent alone. No end group written: not given here.
test system: not given; conditions: not given

| Compound | melting point [°C] |
| --- | --- |
| N=C(N)c1ccc(CN2CCN(Cc3nc4ccc(Cl)cc4[nH]3)CC2=O)cc1 (as salt: salt) [Example 122, 4-[4-(6-Chloro-1H-benzoimidazol-2-ylmethyl)-2-oxo-piperazin-1-ylmethyl]-benzamidine] | 91 to 95 |
| C[C@H]1CN(Cc2ccc3c(N)ncnc3c2)C(=O)[C@H](C)N1C(=O)C=Cc1ccc(Cl)s1 (as salt: salt) [Example 669, (3S, 5S)-1-(4-Amino-quinazolin-7-ylmethyl)-4-[3-(5-chloro-thiophen-2-yl)-acryloyl]-3,5-dimethyl-piperazin-2-one] | 116 to 120 |
| N=C(N)c1ccc(CN2CCC(Cc3nc4ccc(Cl)cc4[nH]3)CC2=O)cc1 (stereo not drawn) (as salt: salt) [Example 815, 4-[4-(6-Chloro-1H-benzoimidazol-2-ylmethyl)-2-oxo-piperidin-1-ylmethyl]-benzamidine] | 105 to 110 |
| C[C@@H]1CN(Cc2ccc3c(N)ncnc3c2)C(=O)[C@H](C)N1CC=Cc1ccc(Cl)s1 (as salt: trifluoroacetic acid salt) [Example 665, (3S,5R)-1-(4-Amino-quinazolin-7-ylmethyl)-4-[3-(5-chloro-thiophen-2-yl)-allyl]-3,5-dimethyl-piperazin-2-one] | 67 to 70 |
| C[C@H]1CN(Cc2ccc3c(N)ncnc3c2)C(=O)[C@H](C)N1S(=O)(=O)C=Cc1ccc(Cl)s1 [Example 667, (3S, 5S)-1-(4-Amino-quinazolin-7-ylmethyl)-4-[2-(5-chloro-thiophen-2-yl)-ethenesulfonyl]-3,5-dimethyl-piperazin-2-one] | 218 to 221 |
| C[C@H]1CN(Cc2ccc3c(N)ncnc3c2)C(=O)[C@H](C)N1S(=O)(=O)c1cc2ccc(Cl)cc2s1 [Example 668, (3S, 5S)-1-(4-Amino-quinazolin-7-ylmethyl)-4-(6-chloro-benzo[b]thiophen-2-sulfonyl)-3,5-dimethyl-piperazin-2-one] | 224 to 226 |
| Nc1ncnc2cc(CN3CCC(Cc4nc5ccc(Cl)cc5[nH]4)CC3=O)ccc12 (stereo not drawn) [Example 816, 1-(4-Amino-quinazolin-7-ylmethyl)-4-(6-chloro-1H-benzoimidazol-2-ylmethyl)-piperidin-2-one] | 128 to 132 |
| Nc1n[nH]c2cc(CN3CCN(Cc4cc5ccc(Cl)cc5s4)CC3=O)ccc12 [Example 874, 1-(3-Amino-1H-indazol-6-ylmethyl)-4-(6-chloro-benzo[b]thiophen-2-ylmethyl)-piperazin-2-one] | 246 to 248 |
| Nc1n[nH]c2cc(CN3CCN(S(=O)(=O)c4cc5ccc(Cl)cc5s4)CC3=O)ccc12 [Example 876, 1-(3-Amino-1H-indazol-6-ylmethyl)-4-(6-chloro-benzo[b]thiophene-2-sulfonyl)-piperazin-2-one] | 274 to 276 |

test system: human cultured vascular smooth muscle cells; conditions: cited from earlier work

| Compound | mitogenesis of human cultured vascular smooth muscle cells |
| --- | --- |
| TAP: named only as TAP; cited (F Bono, et al.) where the mitogenic effect of Factor Xa is said to depend on its enzymatic activity (YNRLCIKPRDWIDECDSNEGGERAYFRNGKGGCDSFWICPEDHTGADYYSSYRDCFNACI; ends and bridges not checked; cysteine pairing not given here; UniProt P17726 1-60, looked up) | inhibited |

test system: rat cultured vascular smooth muscle cells; conditions: cited from earlier work

| Compound | mitogenesis of rat cultured vascular smooth muscle cells |
| --- | --- |
| TAP: named only as TAP; cited (F Bono, et al.) where the mitogenic effect of Factor Xa is said to depend on its enzymatic activity (YNRLCIKPRDWIDECDSNEGGERAYFRNGKGGCDSFWICPEDHTGADYYSSYRDCFNACI; ends and bridges not checked; cysteine pairing not given here; UniProt P17726 1-60, looked up) | inhibited |

test system: rabbit carotid artery; conditions: rabbit carotid artery air-drying injury model, after vascular injury; cited from earlier work

| Compound | neointimal proliferation |
| --- | --- |
| CC(=N)N1CC[C@H](Oc2ccc([C@H](Cc3ccc4ccc(C(=N)N)cc4c3)C(=O)O)cc2)C1 [DX-9065a] | less neointimal proliferation |

Source: patent US7612075B2, “Substituted oxoazaheterocyclyl compounds” (Aventis Pharmaceuticals Inc., priority 1998, dated 2009)
